Data taken from patent US20040204481A1, “Activation of natural killer cells by adenosine A3 receptor agonists” (priority 2001, published 2004).
Entries after “also recorded” stand apart in the source; their conditions may differ.

Assays:
[1] = tested on: murine NK cells; assay: NK activity (51Cr assay) of splenocytes from ICR mice after oral administration; format: in vivo; details: FIG. 2; for NK activity of splenocytes derived from treated mice: 6 μg/kg orally for two consecutive days
Protocol: (§1) The effect of Cl-IB-MECA on the activity of human peripheral blood NK cells was assayed by a standard 4 h ^51Cr-release assay using K562 leukemia cells as targets. Splenocytes or human mononuclear cells were cultured at a concentration of 5×10^5 cells/well in 96 well round bottom plates, and used as the effector (E) cells. The cells were preincubated with 10 nM Cl-IB-MECA for 18 hours, then the agonist was washed out from the wells and the cells were re-suspended in RPMI containing 5% FCS. K562 cells were used as the targets (T) and were labeled with 100 μci of Na2[^51Cr]O4 at 37° C., for 1 hr.
(§2) After extensive washing to remove the excess ^51Cr, target cells (1×10^4) were re-suspended in RPMI and mixed with the effector cells at an E:T ratio of 1:50 in a total volume of 200 μl (triplicate assays). After 4 hours of incubation at 37° C. in 5% CO2, plates were centrifuged, and the supernatants were counted in a gamma counter (LKB).
(§3) NK cytotoxicity was calculated using the following equation (CPM: counts per minute): [formula]
(§4) CPM sample, CPM spontaneous and CPM maximal were determined by measuring the CPM of the supernatants of the target cells in the presence of […], the assay medium or in the presence of 1% triton, respectively. It should be noted that spontaneous release was below 10% of the maximal release throughout this experiment.
ICR mice were orally administered for two consecutive days with 6 μg/kg body weight of Cl-IB-MECA. After 4, 11 and 18 days, mice were sacrificed and spleens were removed. Splenocytes were separated and tested for NK activity using the ^51Cr assay as described above.

[2] = tested on: human peripheral blood NK cells; assay: 4 h 51Cr-release NK cytotoxicity assay, in vitro preincubation with agonist, K562 leukemia cells as targets; format: cell-based; details: for activity of natural killer cells following preincubation: 10 nM Cl-IB-MECA, 18 hours preincubation, K562 targets, E:T ratio 1:50, FIG. 1
Protocol: Murine splenocytes were derived from spleens of ICR mice and human mononuclear cells were separated by Ficoll-Hypaque gradient from heparinized blood of healthy normal volunteers.
as §1, §2, §3, §4

[3] = tested on: B-16 melanoma cells; assay: Adoptive transfer of splenocytes to melanoma bearing mice, count of lung melanoma foci; format: in vivo; details: splenocytes from 6 μg/kg Cl-IB-MECA treated mice engrafted 4 days after B-16 inoculation; day 15; versus non-activated splenocytes or control; FIG. 4
Source text: In another experiment, the capability of the “activated” splenocytes to act in vivo against melanoma cells was examined. The “non-activated” and “activated” splenocytes were engrafted to mice that were inoculated 4 days earlier with B-16 melanoma cells (2.5×10^5). As the control served mice that were inoculated with the B-16 melanoma cells however not engrafted with splenocytes. The mice were sacrificed on day 15 and their lungs were removed. The number of lung melanoma foci was counted, the results for which are depicted in FIG. 4.

[4] = tested on: NK cells; assay: NK activity (51Cr assay) of splenocytes from B-16 melanoma bearing mice treated orally; format: in vivo, C57B1/6J mice; details: for NK activity of splenocytes versus vehicle control group: 15 days, B-16 melanoma inoculated mice, FIG. 3
Protocol: In a further study C57B1/6J mice were used as the model mice which will develop metastatic lung foci after 15 days. The C57B1/6J mice were inoculated intravenously with B-16 melanoma cells (2.5×10^5) and treated daily orally with 6 or 9 μg/kg body weight of Cl-IB-MECA (starting one day after tumor inoculation). After 15 days, the mice were sacrificed and spleens were removed.
Splenocytes were separated and tested for NK activity using the ^51Cr assay as described above. […] The splenocytes derived from the group treated with 6 μg/kg body weight of Cl-IB-MECA were designated as “activated” cells and those derived from the control group were designated as “non-activated” splenocytes.

## CNC(=O)[C@H]1O[C@@H](n2cnc3c(NCc4cccc(I)c4)nc(Cl)nc32)[C@H](O)[C@@H]1O [Cl-IB-MECA, 2-chloro-N^6-(3-iodobenzyl)-adenosine-5′-N-methyl-uronamide]
[1]; after 4 days
  NK activity of splenocytes derived from treated mice: marked increase
[1]; after 11 days
  NK activity of splenocytes derived from treated mice: high activity was still observed
[1]; following 18 days
  NK activity of splenocytes derived from treated mice: only slight increase
[1]; oral administration
  time of maximal activation of murine NK cells: 4 days
[2]
  activity of natural killer cells following preincubation: potentiation
[2]; listed as CI-IB-MECA
  activity of natural killer cells following preincubation: significant dose dependent increase
[3]
  development of lung metastatic foci: decreased number of lung foci
[4]; 6 μg/kg daily orally
  NK activity of splenocytes versus vehicle control group: marked increase
[4]; 9 μg/kg daily orally
  NK activity of splenocytes versus vehicle control group: marked increase
[4]; FIG. 3 legend, dose not stated there
  NK cell activity in splenocytes derived from treated melanoma bearing mice: increased NK cell activity

## O=C(Cc1ccccc1)Nc1nc2ccc(Cl)cc2c2nc(-c3ccco3)nn12 [MRS-1220, 9-chloro-2-(2-furanyl)-5-[(phenylacetyl)amino] [1,2,4,] -triazolo[1,5-c] quinazoline]
[2]; MRS-1220 introduced with Cl-IB-MECA, FIG. 1
  effect of the A3 receptor antagonist on the stimulatory effect of Cl-IB-MECA on NK activity: reversed the stimulatory effect; also recorded: abolished the stimulatory effect
